Laboratory results from BindingDB's records for doi:10.1021/jm00114a022 (Smithkline Beecham Pharmaceuticals Research and Development, 1991).
Where a SMILES comes first, the peptide text is derived from it. Bridges are numbered along the chain shown (N, C = ends). [ ]: non-standard residue; d: D form. NMeR = CN[C@@H](CCCNC(=N)N)C(=O)O; hArg = N=C(N)NCCCC[C@H](N)C(=O)O; Cit = NC(=O)NCCC[C@H](N)C(=O)O; Pen = CC(C)(S)[C@H](N)C(=O)O; Sar = CNCC(=O)O

assay: Inhibition of human washed platelet aggregation

Compound	Ki [µM]
CC(=O)N[C@H]1CSSC(C)(C)[C@@H](C(N)=O)NC(=O)[C@H](CC(=O)O)NC(=O)CNC(=O)[C@H](CCCN=C(N)N)N(C)C1=O (Ac-C[NMeR]GD[Pen]-NH2; disulfide 1-5)	0.062

assay: Inhibition of canine platelet-rich plasma agregation induced by ADP

Compound	IC50 [µM]
CC(=O)N[C@@H](CCCNC(=N)N)C(=O)NCC(=O)N[C@H](CC(=O)N[C@@H](CO)C(N)=O)C(=O)O	> 200
CC(=O)N[C@H](CCCCNC(=N)N)C(=O)NCC(=O)N[C@@H](CC(=O)O)C(=O)N[C@@H](CO)C(N)=O	68.2
CC(=O)N[C@@H](CCCNC(=N)N)C(=O)NCC(=O)N[C@@H](CCC(=O)O)C(=O)N[C@@H](CO)C(N)=O	> 200
CC(=O)N[C@@H]1C(=O)N[C@@H](CCCN=C(N)N)C(=O)NCC(=O)N[C@@H](CC(=O)O)C(=O)N[C@H](C(N)=O)CSSC1(C)C	7.97
CC(=O)N[C@@H](CCCNC(=N)N)C(=O)NCC(=O)N[C@@H](CC(=O)O)C(N)=O	138
CC(=O)N[C@H]1CSSC[C@@H](C(N)=O)NC(=O)[C@H](CC(=O)O)NC(=O)CNC(=O)[C@H](CCCN=C(N)N)NC(=O)CNC1=O	52
CC(=O)N[C@H]1CSSC[C@@H](C(N)=O)NC(=O)[C@H](CC(=O)O)NC(=O)CNC(=O)[C@H](CCCN=C(N)N)NC1=O	16.2
CC(=O)N[C@H]1CSSC(C)(C)[C@@H](C(N)=O)NC(=O)[C@H](CC(=O)O)NC(=O)CNC(=O)[C@H](CCCN=C(N)N)NC(=O)CNC1=O	11.4
CC(=O)N[C@@H](CCCNC(=N)N)C(=O)NCC(=O)N[C@@H](CC(=O)O)C(=O)NCCc1ccccc1	75.9
CC(=O)N[C@H]1CSSC(C)(C)[C@@H](C(N)=O)NC(=O)[C@H](CC(=O)O)NC(=O)CN(C)C(=O)[C@H](CCCN=C(N)N)NC1=O	73.4
CC(=O)N[C@@H]1C(=O)N(C)[C@@H](CCCN=C(N)N)C(=O)NCC(=O)N[C@@H](CC(=O)O)C(=O)N[C@H](C(N)=O)C(C)(C)SSC1(C)C	0.37
CC(=O)N[C@H]1CSSC(C)(C)[C@@H](C(N)=O)NC(=O)[C@H](CC(=O)O)NC(=O)CNC(=O)[C@H](CCCCN)NC1=O (Ac-CKGD[Pen]-NH2; disulfide 1-5)	55.3
CC(=O)N[C@H]1CSSC(C)(C)[C@@H](C(N)=O)NC(=O)[C@H](CC(=O)O)NC(=O)[C@H](C)NC(=O)[C@H](CCCN=C(N)N)NC1=O (Ac-CRAD[Pen]-NH2; disulfide 1-5)	200
CC(=O)N[C@H]1CSSC[C@@H](C(N)=O)NC(=O)[C@H](CO)NC(=O)[C@H](CC(=O)O)NC(=O)CNC(=O)[C@H](CCCN=C(N)N)NC1=O (Ac-CRGDSC-NH2; disulfide 1-6)	32.7
CC(=O)N[C@H]1CSSC(C)(C)[C@@H](C(N)=O)NC(=O)[C@H](CC(=O)O)NC(=O)CNC(=O)[C@H](CCCN=C(N)N)N(C)C1=O (Ac-C[NMeR]GD[Pen]-NH2; disulfide 1-5)	0.355
CC(=O)N[C@H]1CSSC(C)(C)[C@@H](C(N)=O)NC(=O)[C@H](CC(N)=O)NC(=O)CNC(=O)[C@H](CCCN=C(N)N)N(C)C1=O (Ac-C[NMeR]GN[Pen]-NH2; disulfide 1-5)	> 200

Compound	IC50 [µM]
CC(=O)N[C@H]1CSSC(C)(C)[C@@H](C(N)=O)NC(=O)[C@H](CC(=O)O)NC(=O)CNC(=O)[C@H](CCCCN=C(N)N)NC1=O (Ac-C[hArg]GD[Pen]-NH2; disulfide 1-5)	3.85
CC(=O)N[C@@H](Cc1cnc[nH]1)C(=O)NCC(=O)N[C@@H](CC(=O)O)C(=O)N[C@@H](CO)C(N)=O (Ac-HGDS-NH2)	> 200
CC(=O)N[C@@H](CCCCN)C(=O)N[C@H]1CSSC(C)(C)[C@@H](C(=O)O)NC(=O)[C@H](CC(=O)O)NC(=O)CNC(=O)[C@H](C)NC1=O (Ac-KCAGD[Pen]-OH; disulfide 2-6)	> 200
CC(=O)N[C@@H](CCCCN)C(=O)NCC(=O)N[C@@H](CC(=O)O)C(=O)N[C@@H](CO)C(N)=O (Ac-KGDS-NH2)	> 200
CC(=O)N[C@@H](CCCCN)C(=O)NCC(=O)N[C@@H](CCC(=O)O)C(=O)N[C@@H](CO)C(N)=O (Ac-KGES-NH2)	> 200
CC(=O)N[C@@H](CCCNC(=N)N)C(=O)N[C@@H](C)C(=O)N[C@@H](CC(=O)O)C(=O)N[C@@H](CO)C(N)=O (Ac-RADS-NH2)	> 200
CCNC(=O)[C@H](CO)NC(=O)[C@H](CC(=O)O)NC(=O)CNC(=O)[C@H](CCCNC(=N)N)NC(C)=O (Ac-RGDS-NHEt)	> 200
CC(=O)N[C@@H](CCCNC(=N)N)C(=O)NCC(=O)N[C@@H](CC(=O)O)C(=O)N[C@H](C(N)=O)C(C)C (Ac-RGDV-NH2)	55.5
CC(=O)N[C@@H](CCCNC(=N)N)C(=O)NCC(=O)N[C@@H](CC(=O)O)C(=O)N[C@@H](Cc1ccc(O)cc1)C(N)=O (Ac-RGDY-NH2)	102
CC(=O)N[C@@H](CCCNC(=N)N)C(=O)NCC(=O)N[C@@H](CC(N)=O)C(=O)N[C@@H](CO)C(N)=O (Ac-RGNS-NH2)	> 200
CC(=O)N[C@@H](CCCNC(=N)N)C(=O)N1CCC[C@H]1C(=O)N[C@@H](CC(=O)O)C(=O)N[C@@H](CO)C(N)=O (Ac-RPDS-NH2)	> 200
CC(=O)N[C@@H](CCCNC(=N)N)C(=O)N(C)CC(=O)N[C@@H](CC(=O)O)C(=O)N[C@@H](CO)C(N)=O (Ac-R[Sar]DS-NH2)	> 200
CC(=O)N[C@@H](CCCNC(N)=O)C(=O)NCC(=O)N[C@@H](CC(=O)O)C(=O)N[C@@H](CO)C(N)=O (Ac-[Cit]GDS-NH2)	> 200
CC(=O)N[C@@H](Cc1c[nH]cn1)C(=O)N[C@@H](Cc1c[nH]cn1)C(=O)N[C@@H](CC(C)C)C(=O)NCC(=O)NCC(=O)N[C@@H](C)C(=O)N[C@@H](CCCCN)C(=O)N[C@H]1CSSC(C)(C)[C@@H](C(N)=O)NC(=O)[C@H](CC(=O)O)NC(=O)CNC(=O)[C@H](CCCN=C(N)N)NC1=O [1N-[1-formyl-(1S)-ethylcarbamoylmethylcarbamoylmethyl]-2-[2-(1H-5-imidazolyl)-1-[2-(1H-5-imidazolyl)-1-methylcarboxamido-(1S)-ethylcarboxamido]-(1S)-ethylcarboxamido]-4-methyl-(2S)-pentanamide [4-Carbamoyl-16-(2,6-diamino-hexanoylamino)-13-(3-guanidino-propyl)-3,3-dimethyl-6,9,12,15-tetraoxo-1,2-dithia-5,8,11,14-tetraaza-cycloheptadec-7-yl]-acetic acid]	9.6
Ac-HHLGGAKQAGDV-OH [1N-[1-[5-amino-1-formyl-(1S)-pentylcarbamoyl]-(1S)-ethylcarbamoylmethylcarbamoylmethyl]-2-[2-(1H-5-imidazolyl)-1-[2-(1H-5-imidazolyl)-1-methylcarboxamido-(1S)-ethylcarboxamido]-(1S)-ethylcarboxamido]-4-methyl-(2S)-pentanamide 2-[1-[1-[1-amino-3-carbamoyl-(1S)-propylcarboxamido]-(1S)-ethylcarboxamidomethylcarboxamido]-2-carboxy-(1S)-ethylcarboxamido]-3-methyl-(2S)-butanoic acid]	> 200
Ac-RRGDF-NH2	113
